# Like-named read-outs stand apart in the source and are kept apart here.
# System: hiPSC-CMs (iCell-Cardiomyocytes^2)
# In short: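 Monolayers of hiPSC-CMs on fibronectin-coated MEA plates, 50 K/well, kept at 37°C, 5% CO2; compounds added in 0.1% final DMSO after 5-min baseline. Field potential and impedance parameters expressed as mean ± SD percent change from baseline; arrhythmic events noted; cytotoxicity fluorescence normalized to DMSO, Kruskal-Wallis.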
smiles,measurement,setting,value
C[C@H](CS)C(=O)N1CCC[C@H]1C(=O)O [Captopril],"BR (beating rate), % change from baseline","1 µM, 2h",4±4%
same,"FPD (field-potential duration), % change from baseline","1 µM, 2h",0±2.5%
same,"FPDc (field-potential duration corrected by beat-rate), % change from baseline","1 µM, 2h",0.8±1.8%
same,"BR (beating rate), % change from baseline","1 µM, 24h",1±5%
same,"FPD (field-potential duration), % change from baseline","1 µM, 24h",5±5.9%
same,"FPDc (field-potential duration corrected by beat-rate), % change from baseline","1 µM, 24h",5.1±4.4%
same,"BR (beating rate), % change from baseline","1 µM, 48h",-7±4%
same,"FPD (field-potential duration), % change from baseline","1 µM, 48h",11.5±3.8%
same,"FPDc (field-potential duration corrected by beat-rate), % change from baseline","1 µM, 48h",8.8±2.5%
same,"BR (beating rate), % change from baseline","1 µM, 72h",-10±1%
same,"FPD (field-potential duration), % change from baseline","1 µM, 72h",16±2.7%
same,"FPDc (field-potential duration corrected by beat-rate), % change from baseline","1 µM, 72h",11.9±2.1%
same,"BR (beating rate), % change from baseline","1 µM, 96h",-15±4%
same,"FPD (field-potential duration), % change from baseline","1 µM, 96h",22±4.6%
same,"FPDc (field-potential duration corrected by beat-rate), % change from baseline","1 µM, 96h",15.1±3%
same,"BR (beating rate), % change from baseline","3 µM, 72h",-9±1%
same,"FPD (field-potential duration), % change from baseline","3 µM, 72h",12±0.8%
same,"FPDc (field-potential duration corrected by beat-rate), % change from baseline","3 µM, 72h",8.6±0.6%
same,"BR (beating rate), % change from baseline","3 µM, 96h",-18±2%
same,"FPD (field-potential duration), % change from baseline","3 µM, 96h",20.9±1.6%
same,"FPDc (field-potential duration corrected by beat-rate), % change from baseline","3 µM, 96h",13.5±1.6%
same,"BR (beating rate), % change from baseline","3 µM, 2h",2±2%
same,"FPD (field-potential duration), % change from baseline","3 µM, 2h",0.3±1.9%
same,"FPDc (field-potential duration corrected by beat-rate), % change from baseline","3 µM, 2h",1.1±1.6%
same,"BR (beating rate), % change from baseline","3 µM, 24h",1±3%
same,"FPD (field-potential duration), % change from baseline","3 µM, 24h",4.3±0.8%
same,"FPDc (field-potential duration corrected by beat-rate), % change from baseline","3 µM, 24h",4.6±1.6%
same,"BR (beating rate), % change from baseline","3 µM, 48h",-7±2%
same,"FPD (field-potential duration), % change from baseline","3 µM, 48h",10.9±2.8%
same,"FPDc (field-potential duration corrected by beat-rate), % change from baseline","3 µM, 48h",8.2±1.8%
same,"BR (beating rate), % change from baseline","10 µM, 2h",2±2%
same,"FPD (field-potential duration), % change from baseline","10 µM, 2h",0.3±1.7%
same,"FPDc (field-potential duration corrected by beat-rate), % change from baseline","10 µM, 2h",1±1.6%
same,"BR (beating rate), % change from baseline","10 µM, 24h",1±3%
same,"FPD (field-potential duration), % change from baseline","10 µM, 24h",5.3±3.7%
same,"FPDc (field-potential duration corrected by beat-rate), % change from baseline","10 µM, 24h",5.7±2.8%
same,"BR (beating rate), % change from baseline","10 µM, 48h",-7±3%
same,"FPD (field-potential duration), % change from baseline","10 µM, 48h",13.1±5.3%
same,"FPDc (field-potential duration corrected by beat-rate), % change from baseline","10 µM, 48h",10.3±4.5%
same,"BR (beating rate), % change from baseline","10 µM, 72h",-10±1%
same,"FPD (field-potential duration), % change from baseline","10 µM, 72h",14.8±5.3%
same,"FPDc (field-potential duration corrected by beat-rate), % change from baseline","10 µM, 72h",11.2±4.9%
same,"BR (beating rate), % change from baseline","10 µM, 96h",-17±1%
same,"FPD (field-potential duration), % change from baseline","10 µM, 96h",23.4±6.5%
same,"FPDc (field-potential duration corrected by beat-rate), % change from baseline","10 µM, 96h",16±5.7%
same,"BR (beating rate), % change from baseline","30 µM, 2h",2±3%
same,"FPD (field-potential duration), % change from baseline","30 µM, 2h",3.4±1.3%
same,"FPDc (field-potential duration corrected by beat-rate), % change from baseline","30 µM, 2h",4±1.3%
same,"BR (beating rate), % change from baseline","30 µM, 24h",1±3%
same,"FPD (field-potential duration), % change from baseline","30 µM, 24h",7.4±4.1%
same,"FPDc (field-potential duration corrected by beat-rate), % change from baseline","30 µM, 24h",7.7±2.9%
same,"BR (beating rate), % change from baseline","30 µM, 48h",-7±1%
same,"FPD (field-potential duration), % change from baseline","30 µM, 48h",13.9±3.1%
same,"FPDc (field-potential duration corrected by beat-rate), % change from baseline","30 µM, 48h",11.4±2.7%
same,"BR (beating rate), % change from baseline","30 µM, 72h",-9±2%
same,"FPD (field-potential duration), % change from baseline","30 µM, 72h",15.6±2%
same,"FPDc (field-potential duration corrected by beat-rate), % change from baseline","30 µM, 72h",12.1±2.1%
same,"BR (beating rate), % change from baseline","30 µM, 96h",-16±2%
same,"FPD (field-potential duration), % change from baseline","30 µM, 96h",23.3±2.4%
same,"FPDc (field-potential duration corrected by beat-rate), % change from baseline","30 µM, 96h",16±2.1%
same,"cessation of beating, flat T-wave or arrhythmic-like events","all concentrations tested, up to 96 h","no cessation of beating, flat T-wave or arrhythmic-like events were detected"

# Source: publication PMC10364322, “Evaluation of chronic drug-induced electrophysiological and cytotoxic effects using human-induced pluripotent stem cell-derived cardiomyocytes (hiPSC-CMs)” (Frontiers in Pharmacology, 2023)
